Calls of active or inactive are those of the source.
How the values were obtained:
[1] = target: T1, Cytochrome P450 1A2 (Homo sapiens, UniProt P05177);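 also: PubChem cytochrome P450 panel assay, CYP1A2 panel member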
T1 sequence (P05177 whole entry): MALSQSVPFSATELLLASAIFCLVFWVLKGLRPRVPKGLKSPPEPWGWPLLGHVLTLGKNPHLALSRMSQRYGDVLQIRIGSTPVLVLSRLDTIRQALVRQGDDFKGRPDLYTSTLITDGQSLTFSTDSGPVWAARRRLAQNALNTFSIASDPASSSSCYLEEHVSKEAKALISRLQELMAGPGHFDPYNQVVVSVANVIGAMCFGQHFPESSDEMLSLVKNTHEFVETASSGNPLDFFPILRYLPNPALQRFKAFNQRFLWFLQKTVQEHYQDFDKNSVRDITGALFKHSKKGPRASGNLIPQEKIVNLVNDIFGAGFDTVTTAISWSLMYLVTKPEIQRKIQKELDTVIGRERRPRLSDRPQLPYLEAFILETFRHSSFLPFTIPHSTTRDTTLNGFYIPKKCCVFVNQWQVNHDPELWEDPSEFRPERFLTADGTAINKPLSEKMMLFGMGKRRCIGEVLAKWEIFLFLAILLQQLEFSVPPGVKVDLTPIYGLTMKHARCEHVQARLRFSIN

[2] = target: Cytochrome P450 2C19 (Homo sapiens, UniProt P33261); test: Cytochrome panel assay with activity outcomes. Panel member name: p450-cyp2c19 Compounds with AC50 equal or less than 10 uM are considered active; format: functional; details: read-out: AC50
[3] = target: Cytochrome P450 3A4 (Homo sapiens, UniProt P08684);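 also: CYP3A4 tested as one member of a cytochrome P450 panel screen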
[4] = Luminescence Cell-Based Dose Confirmation HTS to Identify Activators of 5'UTR Stem-Loop Driven Alpha-Synuclein mRNA Translation in H4 Neuroglioblastoma Cells. [Related pubchem assays: 1829 (Project Summary), 1814 (Primary HTS)]; format: functional
[5] = Luminescence Cell-Based Dose Response HTS to Identify Activators of Luciferase Translation or Activity in H4 […] Cells. [Related pubchem assays: 1829 (Project Summary), 1814 (Primary HTS)]; format: functional
[6] = target: Cytochrome P450 2C9 (Homo sapiens, UniProt P11712)
[7] = tested on: H4; test: Luminescence Cell-Based Dose Response HTS to Identify Activators of 5'UTR Stem-Loop Driven Prion Protein mRNA Translation in H4 Neuroglioblastoma Cells. [Related pubchem assays: 1829 (Project Summary), 1814 (Primary HTS)]; format: functional; details: Homo sapiens
[8] = target: T2, Heat shock factor protein 1 (Mus musculus, UniProt P38532); test: inhibition of MG132-induced HSE-luciferase signal, confirmation, cell-based, NIH3T3, luminescence, dose retest (AID 2382); format: functional;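 also: NIH3T3 fibroblasts with HSF1-driven luciferase reporter stressed by proteasome inhibitor MG132; luminescence from HSF1-driven luciferase expression after 8 hours of MG132 stress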
T2 sequence (P38532 whole entry): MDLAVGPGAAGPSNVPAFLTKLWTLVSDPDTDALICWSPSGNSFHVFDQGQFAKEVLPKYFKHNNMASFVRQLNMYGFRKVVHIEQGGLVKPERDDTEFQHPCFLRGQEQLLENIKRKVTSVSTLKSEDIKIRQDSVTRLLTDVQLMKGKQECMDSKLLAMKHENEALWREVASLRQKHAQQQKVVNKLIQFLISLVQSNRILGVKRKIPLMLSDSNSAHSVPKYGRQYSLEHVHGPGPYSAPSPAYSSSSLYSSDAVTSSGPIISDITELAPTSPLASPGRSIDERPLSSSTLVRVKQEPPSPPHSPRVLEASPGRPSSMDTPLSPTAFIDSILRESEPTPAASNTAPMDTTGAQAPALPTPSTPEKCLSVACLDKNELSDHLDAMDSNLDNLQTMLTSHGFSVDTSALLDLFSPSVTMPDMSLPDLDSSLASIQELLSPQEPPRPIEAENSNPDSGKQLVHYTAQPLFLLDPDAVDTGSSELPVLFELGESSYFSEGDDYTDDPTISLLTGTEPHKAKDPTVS

[9] = target: Polyadenylate-binding protein 1 (Homo sapiens, UniProt P11940); test: PABP1 MLLE–PAM2 binding inhibitor potency, dose response, biochemical, fluorescence polarization, FITC-PAM2 peptide (AID 602259); format: functional; details: read-out: IC50_Mean
[10] = tested on: Streptococcus sp. 'group A'; test: growth inhibition of control SK(-) GAS strain, dose response, counter-screen for streptokinase expression inhibitor project, luminescence, kanamycin, BacTiterGlo, confirmation (AID 1900); format: functional, organism-based
[11] = tested on: Streptococcus; test: Group A Streptococcus viability loss, dose response, counter-screen for streptokinase expression inhibitor project, luminescence, BacTiterGlo (AID 1915); format: functional, organism-based;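 also: potency for reduction of bacterial viability or growth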
[12] = target: T3, Streptokinase A (Streptococcus pyogenes serotype M1, UniProt P10520); test: S. pyogenes streptokinase expression inhibitors, potency, dose response, plasminogen activation absorbance, OD405 (AID 1914); format: functional, Streptococcus pyogenes M1 GAS;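 also: secreted streptokinase activity via plasminogen activation per viability signal from cell pellet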
T3 sequence (P10520 whole entry): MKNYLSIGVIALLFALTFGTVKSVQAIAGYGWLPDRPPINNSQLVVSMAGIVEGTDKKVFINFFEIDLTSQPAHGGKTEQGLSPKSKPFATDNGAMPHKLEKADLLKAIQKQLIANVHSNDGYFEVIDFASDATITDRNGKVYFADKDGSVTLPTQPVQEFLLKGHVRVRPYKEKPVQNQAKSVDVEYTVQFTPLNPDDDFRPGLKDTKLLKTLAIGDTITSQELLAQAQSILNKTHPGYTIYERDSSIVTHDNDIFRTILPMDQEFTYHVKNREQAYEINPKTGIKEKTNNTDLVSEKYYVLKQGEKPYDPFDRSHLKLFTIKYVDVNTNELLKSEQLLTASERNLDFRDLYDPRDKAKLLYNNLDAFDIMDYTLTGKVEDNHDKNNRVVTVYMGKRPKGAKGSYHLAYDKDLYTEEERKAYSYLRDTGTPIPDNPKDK

Chain of Cytochrome P450 2C19 (P33261 whole entry): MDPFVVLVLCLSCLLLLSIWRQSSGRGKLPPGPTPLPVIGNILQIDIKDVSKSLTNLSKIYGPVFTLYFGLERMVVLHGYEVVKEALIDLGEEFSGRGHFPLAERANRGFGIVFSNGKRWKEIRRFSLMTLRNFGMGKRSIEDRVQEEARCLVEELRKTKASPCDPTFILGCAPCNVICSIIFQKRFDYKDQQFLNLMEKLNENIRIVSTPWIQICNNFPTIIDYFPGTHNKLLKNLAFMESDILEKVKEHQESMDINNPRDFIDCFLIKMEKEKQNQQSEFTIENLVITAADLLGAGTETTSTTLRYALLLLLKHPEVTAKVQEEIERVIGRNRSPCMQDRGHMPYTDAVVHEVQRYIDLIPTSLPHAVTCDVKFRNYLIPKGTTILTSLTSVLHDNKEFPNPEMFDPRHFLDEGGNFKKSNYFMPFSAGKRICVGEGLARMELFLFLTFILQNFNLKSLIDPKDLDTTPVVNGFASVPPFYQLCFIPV
Chain of Cytochrome P450 3A4 (P08684 whole entry): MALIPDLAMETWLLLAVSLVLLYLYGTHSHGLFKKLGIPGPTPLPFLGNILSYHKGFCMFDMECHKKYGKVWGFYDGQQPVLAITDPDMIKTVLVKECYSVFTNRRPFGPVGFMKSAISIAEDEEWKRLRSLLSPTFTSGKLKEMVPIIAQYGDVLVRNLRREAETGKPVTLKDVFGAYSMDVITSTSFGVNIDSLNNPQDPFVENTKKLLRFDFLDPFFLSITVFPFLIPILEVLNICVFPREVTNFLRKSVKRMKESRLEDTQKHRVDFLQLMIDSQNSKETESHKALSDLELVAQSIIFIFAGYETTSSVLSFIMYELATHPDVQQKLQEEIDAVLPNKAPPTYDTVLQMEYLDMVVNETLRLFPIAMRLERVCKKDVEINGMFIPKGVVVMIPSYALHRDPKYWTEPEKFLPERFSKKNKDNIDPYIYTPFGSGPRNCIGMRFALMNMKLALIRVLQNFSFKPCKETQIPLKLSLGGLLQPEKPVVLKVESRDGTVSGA
Chain of Cytochrome P450 2C9 (P11712 whole entry): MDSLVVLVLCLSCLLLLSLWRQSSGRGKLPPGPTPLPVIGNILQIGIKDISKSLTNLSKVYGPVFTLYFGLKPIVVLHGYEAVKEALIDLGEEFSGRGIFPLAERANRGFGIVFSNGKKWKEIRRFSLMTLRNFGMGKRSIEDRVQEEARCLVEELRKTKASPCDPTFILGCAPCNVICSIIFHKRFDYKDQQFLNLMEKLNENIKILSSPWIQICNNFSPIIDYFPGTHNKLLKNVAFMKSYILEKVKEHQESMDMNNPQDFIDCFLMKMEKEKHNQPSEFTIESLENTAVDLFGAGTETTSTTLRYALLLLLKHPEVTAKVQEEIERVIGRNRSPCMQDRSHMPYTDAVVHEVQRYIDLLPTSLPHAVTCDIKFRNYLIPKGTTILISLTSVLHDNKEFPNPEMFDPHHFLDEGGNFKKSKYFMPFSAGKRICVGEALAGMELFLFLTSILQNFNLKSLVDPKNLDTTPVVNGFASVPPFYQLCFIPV
Chain of Polyadenylate-binding protein 1 (P11940 whole entry): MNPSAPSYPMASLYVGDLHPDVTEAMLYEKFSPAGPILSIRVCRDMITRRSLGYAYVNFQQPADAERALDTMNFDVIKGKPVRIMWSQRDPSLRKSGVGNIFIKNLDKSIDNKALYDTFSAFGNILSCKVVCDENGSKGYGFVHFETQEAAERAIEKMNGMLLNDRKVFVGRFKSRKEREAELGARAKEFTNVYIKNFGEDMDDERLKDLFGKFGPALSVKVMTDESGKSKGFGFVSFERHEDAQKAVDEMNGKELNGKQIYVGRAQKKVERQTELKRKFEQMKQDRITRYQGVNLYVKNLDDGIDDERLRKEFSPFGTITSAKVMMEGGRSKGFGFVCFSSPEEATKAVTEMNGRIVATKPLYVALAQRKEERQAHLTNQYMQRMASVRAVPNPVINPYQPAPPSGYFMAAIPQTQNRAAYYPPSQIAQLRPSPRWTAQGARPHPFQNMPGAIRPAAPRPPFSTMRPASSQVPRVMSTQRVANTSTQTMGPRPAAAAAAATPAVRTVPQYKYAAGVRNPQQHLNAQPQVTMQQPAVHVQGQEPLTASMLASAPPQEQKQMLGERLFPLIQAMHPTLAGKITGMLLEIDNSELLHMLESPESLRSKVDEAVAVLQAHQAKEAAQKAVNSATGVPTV

Compound: C[C@](N)(COP(=O)(O)O)C(=O)O
- AC50 [1]: 31.6 µM (inconclusive)
- AC50 [2]: 25.1 µM (inconclusive)

Compound: CCc1c(C(=O)OC)ncc2[nH]c3cc(OC)c(OC)cc3c12
- AC50 [3]: 15.8 µM (inconclusive)

Compound: Cc1ccc(N2CCN(C(=O)c3cn(CC4CCCCC4)nn3)C(C)C2)cc1 (centres undefined)
- EC50 [4]: 2.49 µM (active)
- EC50 [5]: 0.418 µM (active)

Compound: Cc1cnc(CNc2cc(-c3cccnc3)ncn2)cn1
- AC50 [1]: 15.8 µM (inconclusive)
- AC50 [3]: 15.8 µM (inconclusive)

Compound: COc1ccc(NC(=O)N2CCCC3(CCN(C(=O)Oc4ccccc4)CC3)C2)cc1
- AC50 [6]: 1.58 µM (inconclusive)

Compound: COc1cc(O)c2c(O)c3c(c4c2c1[C@@]1(C4)C(C)=CCCC1(C)C)[C@H](O)[C@@]1(O)CC(O)=C(C(N)=O)C(=O)[C@]1(O)C3=O
- AC50 [1]: 3.16 µM (inconclusive)
- AC50 [6]: 3.16 µM (inconclusive)

Compound: O=C1NCCN1Cc1cccc(Cl)c1
- AC50 [2]: 2.24 µM (inconclusive)
- AC50 [6]: 2.24 µM (inconclusive)

Compound: O=C(c1cnsn1)N1CCC(CO)(Cc2cccc(F)c2)CC1
- EC50 [7]: 75.8 µM (active)
- EC50 [4]: 14.8 µM (active)
- EC50 [5]: 15.2 µM (active)

Compound: COc1ccc(COC(=O)N/N=C2/C[C@@H](O)[C@@H](O)[C@@H]3[C@H]4C(=O)N(c5ccc(F)cc5F)C(=O)[C@@H]4CC[C@@H]23)cc1
- AC50 [3]: 3.16 µM (inconclusive)

Compound: Cc1noc(C)c1-c1cc(Nc2ccc(F)cc2)ncn1
- AC50 [3]: 20 µM (inconclusive)
- AC50 [2]: 39.8 µM (inconclusive)

Compound: Clc1ccc(COn2ccnc2)cc1Cl
- EC50 [7]: > 120 µM (not active)
- EC50 [4]: > 120 µM (not active)
- EC50 [5]: > 120 µM (not active)

Compound: O=c1c(-c2cccc(F)c2)nc2cncnc2n1Cc1ccccc1Cl
- AC50 [3]: 15.8 µM (inconclusive)

Compound: CCOC(=O)c1ccc(N[S+]([O-])C23CC4CC(CC(C4)C2)C3)cc1 (centres undefined)
- EC50 [7]: > 120 µM (not active)
- EC50 [4]: > 120 µM (not active)
- EC50 [5]: > 120 µM (not active)

Compound: C=CCn1c(CCCNC(=O)C(C)(C)C)nc2ccccc21
- EC50 [8]: > 195 µM (not active)

Compound: COc1cc(SC)ccc1C(=O)OCC(=O)NC1CCCC1
- EC50 [8]: > 195 µM (not active)

Compound: Cc1ccc(NC(S)=Nc2ccc(Br)cc2)cc1
- AC50 [3]: 14.1 µM (inconclusive)

Compound: COc1ccc(-n2c(=O)c(C)nc3cncnc32)cc1
- AC50 [6]: 39.8 µM (inconclusive)

Compound: CCOc1c2ccc(C(=O)NCCc3cccs3)cc2nn1CC
- EC50 [7]: > 120 µM (not active)
- AC50 [2]: 4.47 µM (inconclusive)
- AC50 [6]: 28.2 µM (inconclusive)
- EC50 [5]: 1.51 µM (active)

Compound: CN(C)C(=O)c1ccc(-c2nc(Nc3ccncc3)c3ccccc3n2)cc1
- AC50 [2]: 39.8 µM (inconclusive)

Compound: CCn1ccc(C(=O)NC2=C(C#N)CCC2)n1
- AC50 [6]: 14.1 µM (inconclusive)

Compound: COc1ccc(NC(=O)Nc2ccc([N+](=O)[O-])cc2)cn1
- IC50 [9]: 42.1 µM (inactive)

Compound: CCOC(=O)C1(S(=O)(=O)c2ccccc2)CCN(Cc2ccccc2)CC1
- AC50 [6]: 11.2 µM (inconclusive)

Compound: Cc1ccc(C2=NCCn3c2c2ccc(C(F)(F)F)cc2[n+]3[O-])cc1
- EC50 [8]: > 195 µM (not active)

Compound: CCNc1ncc2nc(C)c(=O)n(Cc3ccc(F)cc3)c2n1
- AC50 [3]: 7.94 µM (inconclusive)
- AC50 [2]: 6.31 µM (inconclusive)

Compound: COC(=O)c1ccc2ccn(CC(=O)NC3CCCCC3)c2c1
- AC50 [3]: 4.47 µM (inconclusive)

Compound: C=CCNc1nnnc2c1sc1nc(N3CCOCC3)c3c(c12)CCCC3
- EC50 [8]: > 195 µM (not active)

Compound: CC(C)Sc1nc2sccc2c(=O)n1-c1ccccc1
- EC50 [8]: > 195 µM (not active)

Compound: CC(=O)NC1=NN(C(C)=O)C(c2ccccn2)S1 (centres undefined)
- EC50 [8]: > 195 µM (not active)

Compound: COc1ccc(-n2c(=O)c(-c3cccs3)nc3cnc(N4CCN(C)CC4)nc32)cc1
- AC50 [1]: 2.51 µM (inconclusive)
- AC50 [3]: 25.1 µM (inconclusive)

Compound: CN1CCc2ccccc2[C@@H]1Cc1ccccc1NC(=O)c1sc2ccccc2c1Cl
- AC50 [1]: 5.01 µM (inconclusive)
- AC50 [6]: 3.16 µM (inconclusive)

Compound: COC(=O)[C@@H]1C[C@H]1[C@@H](NC(=O)c1ccccc1)c1ccccc1
- AC50 [6]: 39.8 µM (inconclusive)

Compound: CCOC(=O)C1=C(O)C(Nc2nccs2)(C(F)(F)F)N=C1C (centres undefined)
- AC50 [6]: 35.5 µM (inconclusive)

Compound: O=c1c(-c2ccc(F)cc2)nc2cnc(Nc3ccccc3)nc2n1C[C@H]1CCCO1
- AC50 [1]: 2 µM (inconclusive)
- AC50 [3]: 12.6 µM (inconclusive)

Compound: O=C(c1ccccn1)c1cc2ccccc2n1S(=O)(=O)c1ccccc1
- EC50 [4]: 20.5 µM (active)
- EC50 [5]: 55.9 µM (active)

Compound: NNC(=O)CNC(=O)CNS(=O)(=O)c1ccccc1
- EC50 [8]: > 195 µM (not active)

Compound: O=C(Cc1ccccc1F)Nc1ccc(S(=O)(=O)N2CCCCC2)cc1
- EC50 [8]: > 195 µM (not active)

Compound: O=S(=O)(c1ccccc1)c1c[nH]c(O)n1
- EC50 [8]: > 195 µM (not active)

Compound: Cc1ccc(C2N(c3ccccc3)C(=S)N3CCCN23)cc1 (centres undefined)
- EC50 [8]: > 195 µM (not active)

Compound: CCN1CCN(c2cc3c(nn2)Oc2ccccc2N3C)CC1
- EC50 [7]: 0.573 µM (active)
- EC50 [4]: 11.4 µM (active)
- EC50 [5]: 44.6 µM (active)

Compound: COC(=O)c1cc(/C=C/c2ccccc2)[nH]n1
- EC50 [7]: 18.1 µM (active)
- EC50 [4]: 25.4 µM (active)
- EC50 [5]: 6.84 µM (active)

Compound: O=C1C(Cl)=C(NCC2CCCO2)C(=O)N1CCc1ccccc1 (centres undefined)
- EC50 [7]: 13.1 µM (active)
- EC50 [4]: 12.9 µM (active)
- EC50 [5]: 15.4 µM (active)

Compound: COc1ccc(-n2c(S)nnc2COc2cccc(C)c2)cc1
- EC50 [8]: > 195 µM (not active)

Compound: Cn1c(S)nnc1CCCOc1ccc(Cl)cc1Cl
- EC50 [7]: 7.51 µM (active)
- EC50 [4]: > 120 µM (not active)
- EC50 [5]: 22.5 µM (active)

Compound: COc1ccc(-n2c(=O)c(-c3cc(F)cc(F)c3)nc3cncnc32)cc1
- AC50 [2]: 10 µM (inconclusive)

Compound: CC(=O)c1ccc(-n2nnnc2SCC(=O)Nc2cccc(NC(=O)c3ccco3)c2)cc1
- AC50 [6]: 7.08 µM (inconclusive)

Compound: Cc1cc(NC(=O)c2ccc3nc(C)sc3c2)no1
- EC50 [8]: 0.167 µM (active)

Compound: O=C(CCNC(=O)c1ccccc1)OCN1C(=O)c2ccccc2C1=O
- AC50 [3]: 15.8 µM (inconclusive)
- AC50 [2]: 39.8 µM (inconclusive)

Compound: COc1ccc(/C=N/Nc2nc(C)cc(O)n2)cc1OC
- EC50 [8]: 29.8 µM (active)

Compound: C/C(=N\NC(=O)CSc1[nH]c(C)nc1[N+](=O)[O-])c1ccc(F)cc1
- EC50 [7]: 97.5 µM (active)
- EC50 [10]: > 150 µM (not active)
- EC50 [4]: 15 µM (active)
- EC50 [5]: 14.3 µM (active)
- EC50 [11]: > 150 µM (not active)
- EC50 [12]: > 150 µM (not active)

Compound: N#C/C(=C\c1ccc(O)c(O)c1)C(=O)OCCc1cccs1
- AC50 [3]: 20 µM (inconclusive)
